# Source: article PMC9500072, “Topical application of an irreversible small molecule inhibitor of lysyl oxidases ameliorates skin scarring and fibrosis” (Nature Communications, 2022)
# Positions count from the first letter of the chain named. pIC50: −log10 of the molar value. Where “and” joins values, the source holds several entries; their conditions need not be identical. Equal entries are not always repeated. Where two headings read alike, the source gives them in different places.
# Key:
# Format in all cases: biochemical
# Recombinant human LOXL1 = molecular target: T1, Recombinant human LOXL1 (Homo sapiens, UniProt Q08397); assay: Amplex Red oxidation assay, LOXL1 inhibition; conditions: for pIC50: 30 min pre-incubation, read-out: rh LOXL1 IC50; for IC50: read-out: Human Recombinant LOXL1 pIC50±SD (converted)
# T1 construct: made in house
# T1 sequence (Q08397 96-574): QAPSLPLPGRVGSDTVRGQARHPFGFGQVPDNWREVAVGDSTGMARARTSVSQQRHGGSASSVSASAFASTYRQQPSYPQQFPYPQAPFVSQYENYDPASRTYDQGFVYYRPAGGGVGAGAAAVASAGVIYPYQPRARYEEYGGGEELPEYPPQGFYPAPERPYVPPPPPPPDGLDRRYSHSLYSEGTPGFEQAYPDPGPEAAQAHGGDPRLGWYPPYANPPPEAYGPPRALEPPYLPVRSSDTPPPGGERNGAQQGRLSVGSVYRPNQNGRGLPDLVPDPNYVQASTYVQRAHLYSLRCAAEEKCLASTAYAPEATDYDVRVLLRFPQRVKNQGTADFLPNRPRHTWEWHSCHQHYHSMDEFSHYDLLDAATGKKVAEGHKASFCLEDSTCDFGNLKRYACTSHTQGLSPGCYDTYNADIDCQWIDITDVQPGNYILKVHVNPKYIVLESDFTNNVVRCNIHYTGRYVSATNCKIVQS
# Procedure: (§1) The measurement of the enzymatic activity of all lysyl oxidase family members was based on the detection of hydrogen peroxide with an Amplex-Red oxidation assay, as previously described; miniaturized in 384 well formats, with the appropriate combination of substrate and assay buffer for each individual enzyme. After a 30 min pre-incubation of the enzyme at 37 °C with the test compound (or with different incubation times for the time-dependency assay), one volume of reaction mixture containing 120 μM Amplex Red (AR) (Life Technologies), 1.5 U/mL horseradish peroxidase (HRP) (Sigma-Aldrich) and the specific substrate was added to each sample. The relative fluorescence units (RFU) were then measured every 2.5 min for 30 min at 37 °C, excitation 565 nm and emission 590, on a BMG Clariostar Microplate Reader. All the substrates were used at concentrations corresponding to their Km towards the corresponding enzyme, or with a range of different concentrations for the substrate competition experiments.
# (§2) Lysyl oxidases assay buffer contained 1.2 M urea, 50 mM sodium borate buffer, pH 8.2 and 100 µM β-aminoproprionitrile (BAPN, Sigma-Aldrich) was used for low control.
# (§3) Recombinant human LOXL1 was expressed and purified from cDNA (GeneArt) and 10 mM putrescine was used as substrate. Recombinant human and mouse LOXL2 (R&D Systems) were challenged with 5 mM putrescine (Sigma-Aldrich) as the substrate. Rat and dog recombinant LOXL2 were amplified and purified in house from HEK-293 clones kindly provided by Dr. Fernando Rodríguez Pascual, Madrid University, and used in the same conditions as for the human form. 2 mM putrescine was used as the substrate for recombinant human LOXL3 (R&D Systems) and LOXL4 (Dr. Fernando Rodríguez Pascual, university of Madrid, Spain) assays.
# Human recombinant LOXL2 = molecular target: T2, Human recombinant LOXL2 (Homo sapiens, UniProt Q9Y4K0); assay: Amplex Red oxidation assay, LOXL2 inhibition; conditions: for pIC50: 30 min pre-incubation, read-out: LOXL2 IC50
# T2 construct: purchased R&D Systems
# T2 sequence (Q9Y4K0 26-774): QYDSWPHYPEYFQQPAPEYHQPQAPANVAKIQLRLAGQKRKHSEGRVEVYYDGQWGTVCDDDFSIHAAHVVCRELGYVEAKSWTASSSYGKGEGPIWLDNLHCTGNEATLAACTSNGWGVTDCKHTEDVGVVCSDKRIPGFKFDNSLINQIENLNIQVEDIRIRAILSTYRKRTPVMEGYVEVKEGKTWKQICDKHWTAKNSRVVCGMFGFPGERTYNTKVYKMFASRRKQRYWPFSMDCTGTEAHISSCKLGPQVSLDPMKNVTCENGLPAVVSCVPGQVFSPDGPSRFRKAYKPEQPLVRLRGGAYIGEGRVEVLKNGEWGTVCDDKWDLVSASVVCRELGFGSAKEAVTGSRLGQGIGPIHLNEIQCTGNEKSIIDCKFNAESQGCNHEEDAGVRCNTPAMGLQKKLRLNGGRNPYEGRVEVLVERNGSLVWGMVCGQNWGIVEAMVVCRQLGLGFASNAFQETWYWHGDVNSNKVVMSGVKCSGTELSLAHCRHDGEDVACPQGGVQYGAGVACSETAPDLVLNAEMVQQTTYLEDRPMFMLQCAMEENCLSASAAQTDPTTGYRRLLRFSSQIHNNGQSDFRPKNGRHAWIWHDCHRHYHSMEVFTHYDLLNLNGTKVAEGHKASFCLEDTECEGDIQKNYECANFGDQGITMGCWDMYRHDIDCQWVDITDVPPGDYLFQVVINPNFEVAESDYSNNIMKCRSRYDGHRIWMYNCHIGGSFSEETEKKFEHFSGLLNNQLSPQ
# Procedure: For compound oxidation assays, the amount of hydrogen peroxide generated at a single concentration (30 µM) of compound relative to DMSO was measured.
# as §1, §2, §3
# Human Fibroblast LOX = molecular target: T3, Human Fibroblast LOX (Homo sapiens, UniProt P28300); assay: Amine oxidase inhibition profile, human fibroblast LOX; conditions: for pIC50: read-out: Human Fibroblast LOX IC50
# T3 construct: Fibroblast LOX; endogenous in cells; host or cells: human fibroblasts
# T3 sequence (P28300 169-417): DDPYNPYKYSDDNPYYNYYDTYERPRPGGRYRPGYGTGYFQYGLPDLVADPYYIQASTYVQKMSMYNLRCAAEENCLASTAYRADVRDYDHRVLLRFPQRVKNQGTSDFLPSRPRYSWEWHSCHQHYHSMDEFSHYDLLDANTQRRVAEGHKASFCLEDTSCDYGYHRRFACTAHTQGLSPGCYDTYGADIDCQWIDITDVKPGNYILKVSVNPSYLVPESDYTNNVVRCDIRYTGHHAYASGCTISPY
# Procedure: as §1, §2
# (§4) Supplem entary Materi als:
# (§5) Supplementary Table S1: Amine oxidase inhibition profile of PXS -4787, PXS-6302 and
# (§6) Supplementary Table S2: Perm eability profile of PXS -6302.
# Rat Fibroblast LOX = molecular target: T4, Rat Fibroblast LOX (Rattus norvegicus, UniProt P16636); assay: Amine oxidase inhibition profile, rat fibroblast LOX
# T4 construct: Fibroblast LOX; endogenous in cells; host or cells: rat fibroblasts
# T4 sequence (P16636 163-411): T3 sequence (P28300 169-417) with P27S, G29S, Y31H, A49P, T80S, N142S, G188A, K202Q, T224S, D231E
# Procedure: as §1, §2, §4, §5, §6
# [1] = log conc -4.5229, read-out: Fig 2A inhibition (mean)
# [2] = log conc -5, read-out: Fig 2A inhibition (mean)
# [3] = log conc -5.4771, read-out: Fig 2A inhibition (mean)
# [4] = log conc -5.9542, read-out: Fig 2A inhibition (mean)
# [5] = log conc -6.4313, read-out: Fig 2A inhibition (mean)
# [6] = log conc -6.9083, read-out: Fig 2A inhibition (mean)
# [7] = log conc -7.3851, read-out: Fig 2A inhibition (mean)
# [8] = log conc -7.8633, read-out: Fig 2A inhibition (mean)
# [9] = log conc -8.3372, read-out: Fig 2A inhibition (mean)
# [10] = log conc -8.8239, read-out: Fig 2A inhibition (mean)
# [11] = log conc -9.301, read-out: Fig 2A inhibition (mean)
compound,measurement,setting,value
NC/C=C(\F)CS(=O)(=O)c1ccccc1 [PXS-4787],pIC50,Recombinant human LOXL1,5.52 and 5.49
same,inhibition at 30 µM,Recombinant human LOXL1; [1],97.5%
same,inhibition at 10 µM,Recombinant human LOXL1; [2],84.7%
same,inhibition at 3.333 µM,Recombinant human LOXL1; [3],56.4%
same,inhibition at 1.111 µM,Recombinant human LOXL1; [4],26.9%
same,inhibition at 0.3704 µM,Recombinant human LOXL1; [5],13.6%
same,inhibition at 0.1235 µM,Recombinant human LOXL1; [6],6.04%
same,inhibition at 0.0412 µM,Recombinant human LOXL1; [7],2.88%
same,inhibition at 0.0137 µM,Recombinant human LOXL1; [8],3.87%
same,inhibition at 0.0046 µM,Recombinant human LOXL1; [9],0.808%
same,inhibition at […],Recombinant human LOXL1; [10],-1.89%
same,inhibition at 0.0005 µM,Recombinant human LOXL1; [11],1.05%
same,IC50,Recombinant human LOXL1,3.16 µM
same,pIC50,Human recombinant LOXL2,6.22
same,inhibition at 30 µM,Human recombinant LOXL2; [1],98.4%
same,inhibition at 10 µM,Human recombinant LOXL2; [2],95.6%
same,inhibition at 3.333 µM,Human recombinant LOXL2; [3],87.6%
same,inhibition at 1.111 µM,Human recombinant LOXL2; [4],67.7%
same,inhibition at 0.3704 µM,Human recombinant LOXL2; [5],40.3%
same,inhibition at 0.1235 µM,Human recombinant LOXL2; [6],18.8%
same,inhibition at 0.0412 µM,Human recombinant LOXL2; [7],9.34%
same,inhibition at 0.0137 µM,Human recombinant LOXL2; [8],2.56%
same,inhibition at 0.0046 µM,Human recombinant LOXL2; [9],0.119%
same,inhibition at […],Human recombinant LOXL2; [10],-0.297%
same,inhibition at 0.0005 µM,Human recombinant LOXL2; [11],-1.19%
same,IC50,Human recombinant LOXL2; read-out: Human Recombinant LOXL2 pIC50±SD (converted),0.631 µM
same,pIC50,Human Fibroblast LOX,5.28
same,pIC50,Rat Fibroblast LOX,5.34
NC/C=C(\F)C(F)(F)S(=O)(=O)c1ccccc1 [PXS-6302],pIC50,Recombinant human LOXL1,5.47
same,IC50,Recombinant human LOXL1,3.16 µM
same,Human Recombinant LOXL2 pIC50±SD,Human recombinant LOXL2,6.4 ± 0.2
same,pIC50,Human recombinant LOXL2,6.37
same,pIC50,Human Fibroblast LOX,5.35
same,IC50,Human Fibroblast LOX; read-out: Human Fibroblast LOX pIC50±SD (converted),3.98 µM
same,pIC50,Rat Fibroblast LOX,5.07
"N#CCCN [BAPN, β-aminoproprionitrile, reference compound]",Human Recombinant LOXL1 pIC50±SD,Recombinant human LOXL1,5.6 ± 0.1
same,pIC50,Recombinant human LOXL1,5.61
same,Human Recombinant LOXL2 pIC50±SD,Human recombinant LOXL2,6.4 ± 0.1
same,pIC50,Human recombinant LOXL2,6.41
same,Human Fibroblast LOX pIC50±SD,Human Fibroblast LOX,5.5 ± 0.1
same,pIC50,Human Fibroblast LOX,5.52
same,pIC50,Rat Fibroblast LOX,5.67
same,Rat Fibroblast LOX pIC50±SD,Rat Fibroblast LOX,5.7 ± 0.1
